In patent US9957297B2, “Template-fixed peptidomimetics as inhibitors of FPR1” (POLYPHOR AG, priority 2011, dated 2018) one finds IC50 data, which are given here for 1 compound.

In this assay the target is T1, FPR1 (Homo sapiens, UniProt P21462).
T1 construct: host or cells: CHO (PathHunter CHO-FPR1 β-arrestin cells)
T1 sequence (P21462 1-350): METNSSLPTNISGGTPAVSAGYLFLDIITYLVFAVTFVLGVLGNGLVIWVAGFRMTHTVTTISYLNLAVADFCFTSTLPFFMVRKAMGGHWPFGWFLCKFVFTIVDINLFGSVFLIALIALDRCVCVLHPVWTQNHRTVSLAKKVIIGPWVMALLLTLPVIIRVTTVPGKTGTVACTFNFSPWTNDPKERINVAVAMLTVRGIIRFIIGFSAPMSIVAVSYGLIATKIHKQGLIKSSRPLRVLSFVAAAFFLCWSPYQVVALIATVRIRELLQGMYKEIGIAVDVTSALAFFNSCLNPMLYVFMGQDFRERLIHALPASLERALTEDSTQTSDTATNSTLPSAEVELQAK
Nature of the assay: FPR1 β-arrestin recruitment assay (PathHunter CHO-FPR1, antagonistic mode). The class given is cell-based. As to conditions: CHO FPR1 β-arrestin cells; antagonistic assay vs reference agonist fMLF at its EC80; 60 min preincubation. Here is the method: 2.2 FPR1 β-Arrestin Recruitment Assay
The PathHunter CHO—FPR1 (DiscoverX) assay was performed according to the manufacturer's protocol. In brief, CHO FPR1 β-arrestin cells were seeded at a density of 9000 cells per well in 20 μl of Ham's F12 medium (Invitrogen) in black 384-well culture plates and incubated overnight at 37° C. in a humidified atmosphere with 5% CO2. The next day, serial dilutions of the β-hairpin peptidomimetics of this invention have been prepared in DMSO and subsequently diluted in HBSS buffer supplemented with 20 mM Hepes and 0.1% BSA.
For antagonistic assay, 5 μl of compound solution or buffer was added to the cells with a final DMSO concentration of 0.5% (v/v). The plate was incubated for 60 min at 37° C. with 5% CO2 before addition of […] of the reference agonist fMLF peptide (Sigma-Aldrich) at its EC80 concentration. After 90 min of incubation at 37° C. with 5% CO2, 15 μl of beta-Glo detection reagent (Promega) were added. Reaction was developed for 20 min at room temperature and chemiluminescence was measured with a Victor2V (Perkin Elmer) luminescence reader.
In general terms: Recruitment of arrestin is a read-out of receptor activation apart from second messengers.

For orientation: IC50 means the concentration needed to halve the response being measured.

Structures are written as SMILES. Where a SMILES comes first, the peptide text is derived from it. Bridges are numbered along the chain shown (N, C = ends). [ ]: non-standard residue; d: D form.

`CC[C@H](C)[C@@H]1NC(=O)[C@H]([C@@H](C)O)NC(=O)[C@H](Cc2c[nH]c3ccccc23)NC(=O)[C@H]2CCCN2C(=O)CNC(=O)[C@H](Cc2c[nH]cn2)NC(=O)[C@@H]2CSSC[C@H](NC1=O)C(=O)N[C@@H](Cc1ccc(O)cc1)C(=O)N[C@@H](CCC(=O)O)C(=O)N[C@@H](CCCCN)C(=O)N[C@H](CCCCN)C(=O)N[C@@H](CCC(=O)O)C(=O)N[C@@H](Cc1ccc(O)cc1)C(=O)N[C@@H](Cc1c[nH]cn1)C(=O)N[C@@H](CCCCN)C(=O)N2` [compound 5, cyclo(-Tyr-His-Lys-Cys-His-Gly-^DPro-Trp-Thr-Ile-Cys-Tyr-Glu-Lys-^DLys-Glu-)] (cyclo(YHKCHG[dP]WTICYEK[dK]E); disulfide 4-11) gave an IC50 of 124 ± 67 nM.
